# Values quoted from earlier work in US20230181442A1, “METHOD FOR DYEING KERATIN MATERIAL, COMPRISING THE USE OF AN ORGANOSILICON COMPOUND, HYALURONIC ACID (SALT), A DYEING COMPOUND AND A POST-TREATMENT AGENT” (Henkel AG & Co. KGaA, priority 2020, published 2023).
# Conditions: for solubility in water: 25° C.
Compound,solubility in water,solubility in water (in words) (water at 25° C.)
CCN(Cc1cccc(S(=O)(=O)O)c1)c1ccc(C(=C2C=CC(=[N+](CC)Cc3cccc(S(=O)(=O)O)c3)C=C2)c2ccccc2S(=O)(=O)[O-])cc1 [Acid Blue 9],more than 20 wt. %,–
"O=S(=O)(O)c1ccc(N=Nc2c(O)ccc3ccccc23)cc1 [Acid Orange 7, 4-[(2-hydroxy-1-naphthyl)azo]benzene sulfonate]",more than 7 g/L,–
"O=[N+]([O-])c1cc([N+](=O)[O-])c2ccc(S(=O)(=O)O)cc2c1O [Acid Yellow 9, 8-hydroxy-5,7-dinitro-2-naphthalenesulfonic acid]",above 40 g/L,–
"O=C(O)C1=NN(c2ccc(S(=O)(=O)O)cc2)C(=O)C1N=Nc1ccc(S(=O)(=O)O)cc1 (stereo not shown) [Acid Yellow 23, 4,5-dihydro-5-oxo-1-(4-sulfophenyl)-4-((4-sulfophenyl)azo)-1H-pyrazole-3-carboxylic acid]",–,highly soluble
